Measured values from PubChem BioAssay AID1259407 (Chemical Carcinogenesis Research Information System (CCRIS), 2018).
The source made the active and inactive calls. How the calls were made is not given here.

Test system: CCRIS mutagenicity, Ames/micronucleus/aberration tests
Experiment: CCRIS mutagenicity studies
[1] = Test System: AMES SALMONELLA TYPHIMURIUM, Strain/Indicator: TA98, Metabolic Activation: NONE, Method: PREINCUBATION
[2] = Test System: AMES SALMONELLA TYPHIMURIUM, Strain/Indicator: TA100, Metabolic Activation: NONE, Method: PREINCUBATION
[3] = Test System: AMES SALMONELLA TYPHIMURIUM, Strain/Indicator: TA98, Metabolic Activation: NONE, Method: STANDARD PLATE
[4] = Test System: AMES SALMONELLA TYPHIMURIUM, Strain/Indicator: TA98, Metabolic Activation: RAT, LIVER, S-9, AROCLOR 1254, Method: STANDARD PLATE
[5] = Test System: AMES SALMONELLA TYPHIMURIUM, Strain/Indicator: TA98, Metabolic Activation: RAT, LIVER, S-9, AROCLOR 1254, Method: PREINCUBATION
[6] = Test System: AMES SALMONELLA TYPHIMURIUM, Strain/Indicator: TA100, Metabolic Activation: RAT, LIVER, S-9, AROCLOR 1254, Method: PREINCUBATION
[7] = Test System: AMES SALMONELLA TYPHIMURIUM, Strain/Indicator: TA100, Metabolic Activation: NONE, Method: STANDARD PLATE
[8] = Test System: AMES SALMONELLA TYPHIMURIUM, Strain/Indicator: TA100, Metabolic Activation: RAT, LIVER, S-9, AROCLOR 1254, Method: STANDARD PLATE

Structure (SMILES): Cc1ccc(N)c([N+](=O)[O-])c1
- mutagenic call [1]: inactive; negative
- mutagenic call (Test System: AMES SALMONELLA TYPHIMURIUM, Strain/Indicator: TA98, Metabolic Activation: RAT, LIVER, S-9, KANECHLOR 500, Method: PREINCUBATION): inactive; negative
- mutagenic call [2]: inactive; negative
- mutagenic call (Test System: AMES SALMONELLA TYPHIMURIUM, Strain/Indicator: TA100, Metabolic Activation: RAT, LIVER, S-9, KANECHLOR 500, Method: PREINCUBATION): inactive; negative
- mutagenic call (Test System: UDS RODENT HEPATOCYTES, Strain/Indicator: THY INCORP (NON-S-PHASE), Metabolic Activation: NONE, Method: AUTORADIOGRAPHY): inactive; negative

Structure (SMILES): Cc1c([N+](=O)[O-])cnc2c1nc1c(C)cccn12
- mutagenic call [3]: active; positive
- mutagenic call (Test System: AMES SALMONELLA TYPHIMURIUM, Strain/Indicator: TA98, Metabolic Activation: RAT, LIVER, CYTOSOL, AROCLOR 1254, Method: STANDARD PLATE): active; positive
- mutagenic call (Test System: AMES SALMONELLA TYPHIMURIUM, Strain/Indicator: TA98, Metabolic Activation: RAT, LIVER, MICROSOMES, AROCLOR 1254, Method: STANDARD PLATE): active; positive
- mutagenic call [4]: active; positive

Structure (SMILES): Cc1cnccn1
- mutagenic call [1]: inactive; negative
- mutagenic call [5]: inactive; negative
- mutagenic call [2]: inactive; negative
- mutagenic call [6]: inactive; negative
- mutagenic call (Test System: AMES SALMONELLA TYPHIMURIUM, Strain/Indicator: TA102, Metabolic Activation: NONE, Method: PREINCUBATION): inactive; negative
- mutagenic call (Test System: AMES SALMONELLA TYPHIMURIUM, Strain/Indicator: TA102, Metabolic Activation: RAT, LIVER, S-9, AROCLOR 1254, Method: PREINCUBATION): inactive; negative

Structure (SMILES): CC[C@]1(O)C[C@@H]2CN(CCc3c([nH]c4ccccc34)[C@@](C(=O)OC)(c3cc4c(cc3OC)N(C)[C@H]3[C@@](O)(C(=O)OC)[C@H](OC(C)=O)[C@]5(CC)C=CCN6CC[C@]43[C@@H]65)C2)C1
- mutagenic call (End Point: IN VITRO CHROMOSOMAL ABERRATIONS, Test System: CHL/IU CELLS, Metabolic Activation: NONE): active; positive (ploidy changes)
- mutagenic call (End Point: IN VITRO MICRONUCLEUS, Test System: CHL/IU CELLS, Metabolic Activation: NONE): active; positive
- mutagenic call (End Point: IN VITRO MICRONUCLEUS, Test System: CHO CELLS, Metabolic Activation: RAT, LIVER, S-9, AROCLOR 1254): active; positive
- mutagenic call (End Point: IN VITRO MICRONUCLEUS, Test System: HAMSTER V79 CELLS, Metabolic Activation: NONE): active; positive
- mutagenic call (End Point: IN VITRO MICRONUCLEUS, Test System: HUMAN PERIPHERAL BLOOD LYMPHOCYTES (FEMALES, AGE LESS THAN 30 AND AGE GREATER THAN 50 YR), Metabolic Activation: NONE): micronuclei elevated in elderly donors
- mutagenic call (End Point: IN VITRO MICRONUCLEUS, Test System: V79 CELLS, Metabolic Activation: NONE): active; positive
- mutagenic call (End Point: IN VIVO CHROMOSOMAL ABERRATIONS, Test System: BONE MARROW CELLS, Species: MOUSE, Strain/Sex: SWISS/MALE, FEMALE, Route: IP): active; positive
- mutagenic call (End Point: IN VIVO MICRONUCLEUS, Test System: POLYCHROMATIC ERYTHROCYTES, Species: MOUSE, Strain/Sex: ALBINO SWISS/MALE, Route: IP): active; positive
- mutagenic call (End Point: IN VIVO MICRONUCLEUS, Test System: POLYCHROMATIC ERYTHROCYTES, Species: MOUSE, Strain/Sex: SWISS/MALE, FEMALE, Route: IP): active; positive
- mutagenic call [1]: inactive; negative
- mutagenic call [3]: inactive; negative
- mutagenic call (Test System: AMES SALMONELLA TYPHIMURIUM, Strain/Indicator: TA98, Metabolic Activation: S-9, Method: PREINCUBATION): inactive; negative
- mutagenic call (Test System: AMES SALMONELLA TYPHIMURIUM, Strain/Indicator: TA98, Metabolic Activation: S-9, Method: STANDARD PLATE): inactive; negative
- mutagenic call [2]: inactive; negative
- mutagenic call [7]: inactive; negative
- mutagenic call (Test System: AMES SALMONELLA TYPHIMURIUM, Strain/Indicator: TA100, Metabolic Activation: S-9, Method: PREINCUBATION): inactive; negative
- mutagenic call (Test System: AMES SALMONELLA TYPHIMURIUM, Strain/Indicator: TA100, Metabolic Activation: S-9, Method: STANDARD PLATE): inactive; negative
- mutagenic call (Test System: AMES SALMONELLA TYPHIMURIUM, Strain/Indicator: TA1537, Metabolic Activation: S-9, Method: STANDARD PLATE): inactive; negative
- mutagenic call (Test System: E. COLI, Strain/Indicator: WP2 (HCR), Metabolic Activation: NONE, Method: STANDARD PLATE): inactive; negative
- mutagenic call (Test System: E. COLI, Strain/Indicator: WP2 (HCR), Metabolic Activation: S-9, Method: STANDARD PLATE): inactive; negative
- mutagenic call (Test System: MOUSE LYMPHOMA, Strain/Indicator: L5178Y(TK+/TK-), Metabolic Activation: NONE, Method: MICROWELL): active; positive

Structure (SMILES): CC(=O)O[C@@H]1[C@@H](O)[C@H]2O[C@@H]3C=C(C)C(=O)[C@@H](O)[C@]3(CO)[C@]1(C)[C@]21CO1
- mutagenic call [3]: inactive; negative
- mutagenic call (Test System: AMES SALMONELLA TYPHIMURIUM, Strain/Indicator: TA98, Metabolic Activation: RAT LIVER S-9, DELOREM 103, Method: STANDARD PLATE): inactive; negative
- mutagenic call [2]: inactive; negative
- mutagenic call [7]: inactive; negative
- mutagenic call (Test System: AMES SALMONELLA TYPHIMURIUM, Strain/Indicator: TA100, Metabolic Activation: RAT LIVER S-9, DELOREM 103, Method: STANDARD PLATE): inactive; negative
- mutagenic call (Test System: AMES SALMONELLA TYPHIMURIUM, Strain/Indicator: TA100, Metabolic Activation: RAT, LIVER, S-9, PHENOBARBITAL, Method: PREINCUBATION): inactive; negative

Structure (SMILES): O.O.O=N[O-].O=N[O-].O=N[O-].O=N[O-].[K+].[K+].[Pt]
- mutagenic call [1]: inactive; negative
- mutagenic call [5]: inactive; negative
- mutagenic call [2]: inactive; negative
- mutagenic call [6]: inactive; negative

Structure (SMILES): CN(C)CCc1cc(O)ccc1CNc1ccccn1
- mutagenic call (Test System: AMES SALMONELLA TYPHIMURIUM, Strain/Indicator: TA97, Metabolic Activation: NONE, Method: STANDARD PLATE): inactive; negative
- mutagenic call (Test System: AMES SALMONELLA TYPHIMURIUM, Strain/Indicator: TA97, Metabolic Activation: RAT, LIVER, S-9, AROCLOR 1254, Method: STANDARD PLATE): inactive; negative
- mutagenic call [3]: inactive; negative
- mutagenic call [4]: inactive; negative
- mutagenic call [7]: inactive; negative
- mutagenic call [8]: inactive; negative
- mutagenic call (Test System: AMES SALMONELLA TYPHIMURIUM, Strain/Indicator: TA102, Metabolic Activation: NONE, Method: STANDARD PLATE): inactive; negative
- mutagenic call (Test System: AMES SALMONELLA TYPHIMURIUM, Strain/Indicator: TA102, Metabolic Activation: RAT, LIVER, S-9, AROCLOR 1254, Method: STANDARD PLATE): inactive; negative

Structure (SMILES): Oc1ccc2ccc3c4c(ccc3c2c1)[C@@H](O)[C@H](O)C=C4
- mutagenic call [3]: inactive; negative
- mutagenic call [4]: active; positive
- mutagenic call [7]: inactive; negative
- mutagenic call [8]: active; positive
